From article PMC10803810, “Interaction of designed cationic antimicrobial peptides with the outer membrane of gram-negative bacteria” (Scientific Reports, 2024)

Assays:
[1] = test system: laboratory strain of B. subtilis; assay: Minimum inhibitory concentration (MIC) assay; format: cell-based, Bacillus subtilis; conditions: MHB, 10^5 CFU/well, peptide 0-50 μM, 37 °C, 20 h, OD600; average of n = 6 replicates from N = 3 biological experiments
Procedure: (§1) Figure 1 Minimum inhibitory concentrations (MICs) for the present peptide library against three clinical isolates of MDR P. aeruginosa and a laboratory strain of B. subtilis. Increasing concentrations of peptides were independently incubated with bacterial cells for 20 h. MIC was calculated based on bacterial growth in an untreated control and in 1% Triton. Data represent the average from n = 6 replicates from N = 3 biological experiments performed on different days; error bars depict the standard error of the mean. Asterisk denotes MIC values beyond the highest tested concentration (50 μM). TEXT PRINTED IN THE PICTURE: Ponericin W1: Isolate 004B1-3 MIC (μM): 1.17; Isolate 035B7-1 MIC (μM): 2.86; Isolate 014B2-1 MIC (μM): 4.68; B. subtilis MIC (μM): 0.65 | PonAmp: Isolate 004B1-3 MIC (μM): 1.56; Isolate 035B7-1 MIC (μM): 2.60; Isolate 014B2-1 MIC (μM): 3.12; B. subtilis MIC (μM): 0.52 | PonN: Isolate 004B1-3 MIC (μM): 1.56; Isolate 035B7-1 MIC (μM): 2.60; Isolate 014B2-1 MIC (μM): 5.20; B. subtilis MIC (μM): 1.56 | PonC: Isolate 004B1-3 MIC (μM): 1.30; Isolate 035B7-1 MIC (μM): 1.56; Isolate 014B2-1 MIC (μM): 2.86; B. subtilis MIC (μM): 1.30 | PonAmp 2A: Isolate 004B1-3 MIC (μM): 11.46; Isolate 035B7-1 MIC (μM): 50; Isolate 014B2-1 MIC (μM): 50; B. subtilis MIC (μM): 0.85 | PonN 2A: Isolate 004B1-3 MIC (μM): 1.82; Isolate 035B7-1 MIC (μM): 1.82; Isolate 014B2-1 MIC (μM): 5.20; B. subtilis MIC (μM): 2.08 | PonC 2A: Isolate 004B1-3 MIC (μM): 2.08; Isolate 035B7-1 MIC (μM): 3.64; Isolate 014B2-1 MIC (μM): 6.25; B. subtilis MIC (μM): 1.04 | PonAmp 3A: B. subtilis MIC (μM): 0.78 | PonN 3A: Isolate 004B1-3 MIC (μM): 4.69; Isolate 035B7-1 MIC (μM): 16.67; Isolate 014B2-1 MIC (μM): 23; B. subtilis MIC (μM): 8.30 | PonC 3A: Isolate 004B1-3 MIC (μM): 5.73; Isolate 035B7-1 MIC (μM): 33.33; Isolate 014B2-1 MIC (μM): 50; B. subtilis MIC (μM): 1.56 | PonAmp 4A: B. subtilis MIC (μM): 3.12 | PonN 4A: B. subtilis MIC (μM): 12.5 | PonC 4A: B. subtilis MIC (μM): 10.42
(§2) Three clinical isolates of MDR P. aeruginosa were previously obtained from CF patients with chronic infection at the Hospital for Sick Children [Research Ethics Board (REB) #1000019444] (Toronto, Canada) and selected for use in this work along with a laboratory strain of B. subtilis. Serial dilutions of peptides (10 μL) were prepared to achieve concentrations from 50 to 0 μM on a sterile 96-well clear bottom plate. Cells were resuspended in Mueller − Hinton Broth (MHB) and added at 10^5 CFU/well to achieve a final volume of 100 μL. Peptide and bacteria were allowed to incubate at 37 °C for 20 h. OD600 was measured at the end of the incubation period. Reports of MIC are background subtracted from an MHB-only control.

[2] = test system: MDR P. aeruginosa clinical isolate 035B7-1; assay: Minimum inhibitory concentration (MIC) assay; format: cell-based, Pseudomonas aeruginosa; conditions: MHB, 10^5 CFU/well, peptide 0-50 μM, 37 °C, 20 h, OD600; average of n = 6 replicates from N = 3 biological experiments; asterisk = beyond 50 μM
Procedure: as §1
(§3) Clinical isolates of P. aeruginosa [Research Ethics Board (REB) #1000019444] were obtained with informed consent from CF patients with chronic infection followed at the Hospital for Sick Children (Toronto, Canada)[66]. Consent was obtained from a parent or legal guardian if not of age. All methods were performed in accordance with the relevant guidelines and regulations for research involving human subjects at the Hospital for Sick Children. Antimicrobial susceptibility testing was performed as per the Clinical Laboratory Standards Institute (CLSI)[67].
as §2

[3] = test system: MDR P. aeruginosa clinical isolate 004B1-3; assay: Minimum inhibitory concentration (MIC) assay; format: cell-based, Pseudomonas aeruginosa; conditions: MHB, 10^5 CFU/well, peptide 0-50 μM, 37 °C, 20 h, OD600; average of n = 6 replicates from N = 3 biological experiments; asterisk = beyond 50 μM
Procedure: as §1, §3, §2

[4] = test system: MDR P. aeruginosa clinical isolate 014B2-1; assay: Minimum inhibitory concentration (MIC) assay; format: cell-based, Pseudomonas aeruginosa; conditions: MHB, 10^5 CFU/well, peptide 0-50 μM, 37 °C, 20 h, OD600; average of n = 6 replicates from N = 3 biological experiments; asterisk = beyond 50 μM
Procedure: as §1, §3, §2

[5] = test system: MDR isolates of P. aeruginosa; format: cell-based, Pseudomonas aeruginosa; conditions: for average MIC against MDR P. aeruginosa isolates: average over the clinical isolates
Excerpt: We began our investigations by testing the antimicrobial efficacy of our peptide library against P. aeruginosa, an opportunistic gram-negative bacterium found in patients with cystic fibrosis (CF)[44],[45]. MDR isolates of P. aeruginosa obtained from chronically infected CF patients were independently challenged with the peptide library using a minimum inhibitory concentration assay (MIC, defined as the lowest drug concentration required to inhibit bacterial growth). […] A similar trend is observed among the 3A analogs. At four Leu-to-Ala substitutions, activity is universally lost as the sequences no longer meet the minimum hydrophobicity threshold for spontaneous membrane insertion.
Figure 1 Minimum inhibitory concentrations (MICs) for the present peptide library against three clinical isolates of MDR P. aeruginosa and a laboratory strain of B. subtilis. Increasing concentrations of peptides were independently incubated with bacterial cells for 20 h. MIC was calculated based on bacterial growth in an untreated control and in 1% Triton. Data represent the average from n = 6 replicates from N = 3 biological experiments performed on different days; error bars depict the standard error of the mean. Asterisk denotes MIC values beyond the highest tested concentration (50 μM). […]
Three clinical isolates of MDR P. aeruginosa were previously obtained from CF patients with chronic infection at the Hospital for Sick Children [Research Ethics Board (REB) #1000019444] […] OD600 was measured at the end of the incubation period. […]

[6] = in vitro dye release; cited from earlier work
Excerpt: In contrast, Lys-clustered PonN and PonC have been previously found to exclusively adopt random coils when exposed to liposomes composed of an approximate 3:1 ratio of PE:PG phospholipids, representative of the bacterial IM[37]. The latter configuration ostensibly deters peptide capacity for pore formation and/or carpeted assembly compared to helical amphipathic constructs such as PonAmp, which continues to display high helical propensity at both membrane interfaces. The comparatively shallow and/or transient nature of interaction between Lys-clustered constructs and the IM interface was f ...

[7] = test system: LPS from P. aeruginosa 10; assay: Dansyl-polymyxin (DPX) displacement assay; format: binding, Pseudomonas aeruginosa; conditions: 3 μg/mL LPS saturated by 2.5 μM DPX, peptide added in 1 μM increments up to 10 μM, 10 mM Tris 10 mM NaCl pH 7.4; ex 340 / em 485 nm; n = 3
Excerpt: We then sought to evaluate whether the relative trends in antimicrobial efficacy observed between Lys-clustered versus helical amphipathic sequences against gram-negative bacteria correlate to their degree of interaction with the OM. In doing so, we tested the binding affinity of our peptide library to LPS using a Dansyl-Polymyxin (DPX) displacement assay. DPX is a fluorescently-tagged derivative of Polymyxin B that highly associates with polyanionic sites on LPS[46]. Dansyl fluorescence reaches a maximum when surrounded by a hydrophobic environment (ex. lipid A moiety of LPS), thereby enabling us to track bound and unbound states of the LPS-DPX complex. First, we empirically determined the concentration of DPX required to completely saturate a set quantity of LPS in solution (Fig. 2). Upon identifying the saturation threshold, we assessed the ability of our peptide library to outcompete for LPS binding by displacing bound DPX. […] High sequence hydrophobicity is observed to supplement peptide propensity to displace DPX as the binding affinity of PonN and PonC to LPS progressively weakens with increasing Leu-to-Ala substitutions (Fig. 3b–d).
Lyophilized stocks of LPS from P. aeruginosa 10 (#L9143) and Dansyl-labelled polymyxin B (DPX) suspended in water (#SBR00029) were purchased from Sigma. 1 mg/mL LPS was prepared in water and stored at 4 °C until use. As described in detail elsewhere, saturation of the LPS-DPX complex was first determined on a Photon Technology International fluorometer using a 1 cm cuvette. Stepwise additions of DPX (in 0.25 μM increments up to 5 μM) was added to 3 μg/mL LPS suspended in 10 mM Tris 10 mM NaCl buffer at pH 7.4. DPX fluorescence was excited at 340 nm (2 nm slit width) and emission was recorded at 485 nm (5 nm slit width).
To measure DPX displacement, peptides were independently added at 1 μM increments (up to 10 μM) to preparations containing 3 μg/mL LPS saturated by 2.5 μM DPX. DPX fluorescence was read immediately upon peptide addition. Drops in fluorescence are interpreted as the removal of DPX from LPS due to competitive binding by peptide.

human red blood cells = conditions: up to 50 μM; cited from earlier work
Excerpt: In designing the Ponericin peptide library, our principal goal is to gauge systematically how the relative distribution of charged residues influences peptide-membrane interactions. As well, hydrophobicity is of particular interest to our investigations as earlier studies on the Ponericin W1 library reveal the highly toxic nature of native Ponericin W1 against mammalian red blood cells. Thus, stepwise Leu-to-Ala substitutions (up to four substitutions) were subsequently applied to each parent analog to simultaneously evaluate the contribution of overall sequence hydrophobicity. All peptide ...

Row | Substance | MIC, B. subtilis [1] [µM] | MIC, Isolate 035B7-1 [2] [µM] | MIC, Isolate 004B1-3 [3] [µM] | MIC, Isolate 014B2-1 [4] [µM] | average MIC against MDR P. aeruginosa isolates [5] | Rupture of liposome mimetics of the bacterial IM (dye release) [6] | Displacement of DPX from LPS (change in DPX fluorescence) [7] | MIC against MDR P. aeruginosa isolates ([5]; three clinical isolates from CF patients, isolate not specified, 20 h, highest tested 50 μM) [µM] | Toxicity against mammalian red blood cells (human red blood cells)
1 | H-KKKKKKWAGSAAIGAALPSVVGAFQ-NH2 [PonN 4A] | 12.5 | – | – | – | – | – | – | – | –
2 | H-KKKKKKWAGSAAIGAALPSVVGLFQ-NH2 [PonN 3A] | 8.30 | 16.67 | 4.69 | 23 | – | – | – | – | –
3 | H-KKKKKKWAGSAAIGALLPSVVGLFQ-NH2 [PonN 2A] | 2.08 | 1.82 | 1.82 | 5.20 | ~ 3 μM | – | – | – | –
4 | H-KKKKKKWLGSALIGALLPSVVGLFQ-NH2 [PonN] | 1.56 | 2.60 | 1.56 | 5.20 | – | more gradually | highly interrupt the LPS-DPX complex | – | –
5 | H-WAGSAAIGAALPSVVGAFQKKKKKK-NH2 [PonC 4A] | 10.42 | – | – | – | – | – | – | – | –
6 | H-WAGSAAIGAALPSVVGLFQKKKKKK-NH2 [PonC 3A] | 1.56 | 33.33 | 5.73 | 50 | – | – | – | – | –
7 | H-WAGSAAIGALLPSVVGLFQKKKKKK-NH2 [PonC 2A] | 1.04 | 3.64 | 2.08 | 6.25 | ~ 4 μM | – | – | – | –
8 | H-WAKKAAKIGAKALPSVVKAFKGSGQ-NH2 [PonAmp 4A] | 3.12 | – | – | – | – | – | – | – | –
9 | H-WAKKAAKIGAKALPSVVKLFKGSGQ-NH2 [PonAmp 3A] | 0.78 | – | – | – | – | – | – | – | –
10 | H-WAKKAAKIGAKLLPSVVKLFKGSGQ-NH2 [PonAmp 2A] | 0.85 | 50 | 11.46 | 50 | – | – | – | 50 | –
11 | H-WLGSALIGALLPSVVGLFQKKKKKK-NH2 [PonC] | 1.30 | 1.56 | 1.30 | 2.86 | – | more gradually | highly interrupt the LPS-DPX complex | – | –
12 | H-WLGSALKIGAKLLPSVVGLFKKKKQ-NH2 [Ponericin W1, reference compound] | 0.65 | 2.86 | 1.17 | 4.68 | – | – | negligible change in fluorescence | – | highly toxic
13 | H-WLKKALKIGAKLLPSVVKLFKGSGQ-NH2 [PonAmp] | 0.52 | 2.60 | 1.56 | 3.12 | – | ruptured instantaneously | negligible change in fluorescence | – | –
